Assay results as given in patent US6613747B2, “6-O-carbamoyl ketolide antibacterials” (Ortho-McNeil Pharmaceutical, Inc., priority 2000, dated 2003).
≈ marks a conversion by molar mass, not a printed value. Like-named read-outs stand apart in the source and are kept apart here.

Experiments:
Experiment in all cases: MIC, microdilution broth method (NCCLS)
Format in all cases: cell-based
[1] = test system: E. coli OC2605; settings: A: E. coli OC2605, 35° C., 16-20 hours
In short: (§1)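 Growth inhibition was scored visually against compound-free control wells in each tray. Setup: NCCLS broth microdilution, cation-adjusted Mueller-Hinton medium, two-fold dilution series, approx. 5×10^4 CFU/well, 16-20 h at 35° C.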

[2] = test system: E. faecalis ATCC29212; settings: C: E. faecalis ATCC29212, 35° C., 16-20 hours
In short: as §1

[3] = test system: H. influenzae ATCC49247; settings: E: H. influenzae ATCC49247, 35° C., 16-20 hours
In short: as §1

[4] = test system: S. aureus ATCC29213; settings: B: S. aureus ATCC29213, 35° C., 16-20 hours
In short: as §1

[5] = test system: S. pneumoniae ATCC49619; settings: D: S. pneumoniae ATCC49619, 35° C., 16-20 hours
In short: as §1

SMILES	MIC [1] [µg/mL]	MIC [2] [µg/mL]	MIC [3] [µg/mL]	MIC [4] [µg/mL]	MIC [5]	MIC ([1]; Escherichia coli, read-out: MIC) [µg/mL]	MIC ([2]; Enterococcus faecalis, read-out: MIC) [µg/mL]	MIC ([3]; Haemophilus influenzae, read-out: MIC) [µg/mL]	MIC ([4]; Staphylococcus aureus, read-out: MIC) [µg/mL]	MIC ([5]; Streptococcus pneumoniae, read-out: MIC) [µg/mL]
CC[C@H]1OC(=O)[C@H](C)C(=O)[C@H](C)[C@@H](O[C@@H]2O[C@H](C)C[C@H](N(C)C)[C@H]2O)[C@](C)(OC(=O)NCCCc2ccnc3ccccc23)C[C@@H](C)C(=O)[C@H](C)[C@H]2NC(=O)O[C@@]21C [Compound 25]	8 (≈ 9.86 µM)	0.06 (≈ 0.074 µM)	4 (≈ 4.93 µM)	0.25 (≈ 0.308 µM)	0.03 µg/mL (≈ 0.037 µM)	–	–	–	–	–
CC[C@H]1OC(=O)[C@H](C)C(=O)[C@H](C)[C@@H](O[C@@H]2O[C@H](C)C[C@H](N(C)C)[C@H]2O)[C@](C)(OC(=O)N(C)C/C=C/c2ccc(-c3ncccn3)cc2)C[C@@H](C)C(=O)[C@H](C)[C@H]2NC(=O)O[C@@]21C [Compound 85]	>16	0.25 (≈ 0.294 µM)	>16	1 (≈ 1.18 µM)	0.12 µg/mL (≈ 0.141 µM)	–	–	–	–	–
CC[C@H]1OC(=O)[C@H](C)C(=O)[C@H](C)[C@@H](O[C@@H]2O[C@H](C)C[C@H](N(C)C)[C@H]2O)[C@](C)(OC(=O)N2Cc3ccccc3C2)C[C@@H](C)C(=O)[C@H](C)[C@H]2NC(=O)O[C@@]21C [Compound 138]	>16	2 (≈ 2.69 µM)	8 (≈ 10.8 µM)	16 (≈ 21.5 µM)	0.5 µg/mL (≈ 0.672 µM)	–	–	–	–	–
CC[C@H]1OC(=O)[C@H](C)C(=O)[C@H](C)[C@@H](O[C@@H]2O[C@H](C)C[C@H](N(C)C)[C@H]2O)[C@](C)(OC(=O)NCc2ccc(-n3cccn3)c(OC)c2)C[C@@H](C)C(=O)[C@H](C)[C@H]2NC(=O)O[C@@]21C [Compound 81]	>16	0.12 (≈ 0.145 µM)	8 (≈ 9.66 µM)	2 (≈ 2.42 µM)	0.06 µg/mL (≈ 0.0725 µM)	–	–	–	–	–
CC[C@H]1OC(=O)[C@H](C)C(=O)[C@H](C)[C@@H](O[C@@H]2O[C@H](C)C[C@H](N(C)C)[C@H]2O)[C@](C)(OC(=O)NC/C=C/c2cn(-c3ncccn3)cn2)C[C@@H](C)C(=O)[C@H](C)[C@H]2NC(=O)O[C@@]21C [Compound 92]	16 (≈ 19.4 µM)	0.12 (≈ 0.145 µM)	2 (≈ 2.42 µM)	0.25 (≈ 0.303 µM)	0.03 µg/mL (≈ 0.0363 µM)	–	–	–	–	–
CC[C@H]1OC(=O)[C@H](C)C(=O)[C@H](C)[C@@H](O[C@@H]2O[C@H](C)C[C@H](N(C)C)[C@H]2O)[C@](C)(OC(=O)NCc2ccc(-c3ccccn3)s2)C[C@@H](C)C(=O)[C@H](C)[C@H]2NC(=O)O[C@@]21C [Compound 56]	8 (≈ 9.82 µM)	0.06 (≈ 0.0736 µM)	2 (≈ 2.45 µM)	0.25 (≈ 0.307 µM)	≦0.015 μg/mL	–	–	–	–	–
CC[C@H]1OC(=O)[C@H](C)C(=O)[C@H](C)[C@@H](O[C@@H]2O[C@H](C)C[C@H](N(C)C)[C@H]2O)[C@](C)(OC(=O)NC/C=C/c2ccc(-c3ccn(C)n3)cc2)C[C@@H](C)C(=O)[C@H](C)[C@H]2NC(=O)O[C@@]21C [Compound 43, Carbamic acid, [(2E)-3-[4-(1-methyl-1H-pyrazol-3-yl)phenyl]-2-propenyl]-, (3aS,4R,7R,9R,10R,11R,13R,15R,15aR)-4-ethyltetradecahydro-3a,7,9,11,13,15-hexamethyl-2,6,8,14-tetraoxo-10-[[3,4,6-trideoxy-3-(dimethylamino)-β-D-xylo-hexopyranosyl]oxy]-2H-oxacyclotetradecino[4,3-d]oxazol-11-yl ester]	–	–	–	–	–	> 16	0.12 (≈ 0.143 µM)	2 (≈ 2.39 µM)	0.25 (≈ 0.298 µM)	0.03 (≈ 0.0358 µM)
CC[C@H]1OC(=O)[C@H](C)C(=O)[C@H](C)[C@@H](O[C@@H]2O[C@H](C)C[C@H](N(C)C)[C@H]2O)[C@](C)(OC(=O)NC/C=C/c2ccc(-c3nccc(C)n3)cc2)C[C@@H](C)C(=O)[C@H](C)[C@H]2NC(=O)O[C@@]21C [Compound 68]	>16	0.12 (≈ 0.141 µM)	4 (≈ 4.71 µM)	0.25 (≈ 0.294 µM)	0.03 µg/mL (≈ 0.0353 µM)	–	–	–	–	–
CCC1OC(=O)C(C)(F)C(=O)C(C)C(OC2OC(C)CC(N(C)C)C2O)C(C)(OC(=O)NCC=Cc2ccc(-c3ncccn3)cc2)CC(C)C(=O)C(C)C2NC(=O)OC12C (stereo not drawn) [Compound 75]	>16	0.12 (≈ 0.141 µM)	4 (≈ 4.68 µM)	0.25 (≈ 0.293 µM)	0.03 µg/mL (≈ 0.0351 µM)	–	–	–	–	–
CC[C@H]1OC(=O)[C@H](C)C(=O)[C@H](C)[C@@H](O[C@@H]2O[C@H](C)C[C@H](N(C)C)[C@H]2O)[C@](C)(OC(=O)NCCCc2cccnc2)C[C@@H](C)C(=O)[C@H](C)[C@H]2NC(=O)O[C@@]21C [Compound 12]	16 (≈ 21 µM)	0.12 (≈ 0.158 µM)	4 (≈ 5.26 µM)	1 (≈ 1.31 µM)	0.06 µg/mL (≈ 0.0789 µM)	–	–	–	–	–
CCC1OC(=O)C(C)(O)C(=O)C(C)C(OC2OC(C)CC(N(C)C)C2O)C(C)(OC(=O)NCC=Cc2ccc(-c3cnccn3)cc2)CC(C)C(=O)C(C)C2NC(=O)OC12C (stereo not drawn) [Compound 98]	>16	0.25 (≈ 0.293 µM)	4 (≈ 4.69 µM)	0.5 (≈ 0.587 µM)	0.03 µg/mL (≈ 0.0352 µM)	–	–	–	–	–
CC[C@H]1OC(=O)[C@H](C)C(=O)[C@H](C)[C@@H](O[C@@H]2O[C@H](C)C[C@H](N(C)C)[C@H]2O)[C@](C)(OC(=O)NC/C=C/c2ccc(-c3ccncc3)cc2)C[C@@H](C)C(=O)[C@H](C)[C@H]2NC(=O)O[C@@]21C [Compound 26]	>16	0.12 (≈ 0.144 µM)	2 (≈ 2.4 µM)	0.5 (≈ 0.599 µM)	0.03 µg/mL (≈ 0.0359 µM)	–	–	–	–	–

Next, values leading:

MIC [1] [µg/mL]	MIC [2] [µg/mL]	MIC [3] [µg/mL]	MIC [4] [µg/mL]	MIC [5]	MIC ([1]; Escherichia coli, read-out: MIC) [µg/mL]	MIC ([2]; Enterococcus faecalis, read-out: MIC) [µg/mL]	MIC ([3]; Haemophilus influenzae, read-out: MIC) [µg/mL]	MIC ([4]; Staphylococcus aureus, read-out: MIC) [µg/mL]	MIC ([5]; Streptococcus pneumoniae, read-out: MIC) [µg/mL]	SMILES
8 (≈ 9.55 µM)	0.06 (≈ 0.0716 µM)	2 (≈ 2.39 µM)	0.25 (≈ 0.298 µM)	≦0.015 μg/mL	–	–	–	–	–	CC[C@H]1OC(=O)[C@H](C)C(=O)[C@H](C)[C@@H](O[C@@H]2O[C@H](C)C[C@H](N(C)C)[C@H]2O)[C@](C)(OC(=O)NC/C=C/c2ccc(Br)nc2)C[C@@H](C)C(=O)[C@H](C)[C@H]2NC(=O)O[C@@]21C [Compound 72]
16 (≈ 19.8 µM)	0.06 (≈ 0.0741 µM)	2 (≈ 2.47 µM)	0.25 (≈ 0.309 µM)	≦0.015 μg/mL	–	–	–	–	–	CC[C@H]1OC(=O)[C@H](C)C(=O)[C@H](C)[C@@H](O[C@@H]2O[C@H](C)C[C@H](N(C)C)[C@H]2O)[C@](C)(OC(=O)NCc2ccc(-c3cnccn3)cc2)C[C@@H](C)C(=O)[C@H](C)[C@H]2NC(=O)O[C@@]21C [Compound 76]
>16	0.12 (≈ 0.148 µM)	4 (≈ 4.93 µM)	1 (≈ 1.23 µM)	0.03 µg/mL (≈ 0.0369 µM)	–	–	–	–	–	CC[C@H]1OC(=O)[C@H](C)C(=O)[C@H](C)[C@@H](O[C@@H]2O[C@H](C)C[C@H](N(C)C)[C@H]2O)[C@](C)(OC(=O)NCc2ccc(-n3cc(C)cn3)cc2)C[C@@H](C)C(=O)[C@H](C)[C@H]2NC(=O)O[C@@]21C [Compound 64]
16 (≈ 20 µM)	0.25 (≈ 0.313 µM)	4 (≈ 5.01 µM)	1 (≈ 1.25 µM)	0.03 µg/mL (≈ 0.0375 µM)	–	–	–	–	–	CC[C@H]1OC(=O)[C@H](C)C(=O)[C@H](C)[C@@H](O[C@@H]2O[C@H](C)C[C@H](N(C)C)[C@H]2O)[C@](C)(OC(=O)NCc2ccc(-n3cncn3)cc2)C[C@@H](C)C(=O)[C@H](C)[C@H]2NC(=O)O[C@@]21C [Compound 10]
16 (≈ 20 µM)	0.06 (≈ 0.075 µM)	1 (≈ 1.25 µM)	0.5 (≈ 0.625 µM)	≦0.015 μg/mL	–	–	–	–	–	CC[C@H]1OC(=O)[C@H](C)C(=O)[C@H](C)[C@@H](O[C@@H]2O[C@H](C)C[C@H](N(C)C)[C@H]2O)[C@](C)(OC(=O)NCc2cn(-c3ncccn3)cn2)C[C@@H](C)C(=O)[C@H](C)[C@H]2NC(=O)O[C@@]21C [Compound 93]
8 (≈ 9.89 µM)	0.12 (≈ 0.148 µM)	2 (≈ 2.47 µM)	0.25 (≈ 0.309 µM)	0.03 µg/mL (≈ 0.0371 µM)	–	–	–	–	–	CC[C@H]1OC(=O)[C@H](C)C(=O)[C@H](C)[C@@H](O[C@@H]2O[C@H](C)C[C@H](N(C)C)[C@H]2O)[C@](C)(OC(=O)NC/C=C/c2cncc3ccccc23)C[C@@H](C)C(=O)[C@H](C)[C@H]2NC(=O)O[C@@]21C [Compound 52]
8 (≈ 9.37 µM)	0.12 (≈ 0.141 µM)	2 (≈ 2.34 µM)	0.25 (≈ 0.293 µM)	0.03 µg/mL (≈ 0.0351 µM)	–	–	–	–	–	CCC1OC(=O)C(C)(F)C(=O)C(C)C(OC2OC(C)CC(N(C)C)C2O)C(C)(OC(=O)NCC=Cc2ccc(-c3cnccn3)cc2)CC(C)C(=O)C(C)C2NC(=O)OC12C (stereo not drawn) [Compound 101]
16 (≈ 19.6 µM)	0.06 (≈ 0.0735 µM)	2 (≈ 2.45 µM)	0.5 (≈ 0.613 µM)	0.03 µg/mL (≈ 0.0368 µM)	–	–	–	–	–	CC[C@H]1OC(=O)[C@H](C)C(=O)[C@H](C)[C@@H](O[C@@H]2O[C@H](C)C[C@H](N(C)C)[C@H]2O)[C@](C)(OC(=O)NCc2ccc(-n3cccn3)cc2F)C[C@@H](C)C(=O)[C@H](C)[C@H]2NC(=O)O[C@@]21C [Compound 73]
16 (≈ 19.8 µM)	0.12 (≈ 0.148 µM)	1 (≈ 1.23 µM)	0.25 (≈ 0.309 µM)	0.03 µg/mL (≈ 0.037 µM)	–	–	–	–	–	CC[C@H]1OC(=O)[C@H](C)C(=O)[C@H](C)[C@@H](O[C@@H]2O[C@H](C)C[C@H](N(C)C)[C@H]2O)[C@](C)(OC(=O)NC/C=C/c2ccc3nccnc3c2)C[C@@H](C)C(=O)[C@H](C)[C@H]2NC(=O)O[C@@]21C [Compound 41]
